Read-outs that look alike come from different tables or passages of the source. Non-standard residues stand in square brackets, D forms with d. Residues, ends and D or L forms follow the SMILES beside them.
How the values were obtained:
HIV-1 NL4-3 = assay: focal infectivity assay, inhibition of HIV-1 NL4-3 in HeLa H1-JC.37 cells; format: cell-based
Excerpt: The term “EC50” refers to the concentration of peptide that inhibits 50% viral activity, including infective activity, as measured in an in vitro assay, including a focal infectivity assay (described in Pincus, et al. Biotechniques 10:336 (1991)).
Peptides and peptide analogs that bind to an HIV target protein of interest are then screened for their effectiveness in inhibiting HIV activity in vitro. One assay for evaluating HIV inhibiting activity in vitro is a focal infectivity assay, described by Pincus, et al. Biotechniques 10:336 (1991). Preferred peptides and peptide analogs will inhibit HIV activity in vitro at a concentration of about 50 μM or less, more preferably at about 40 μM, 30 μM, 25 μM or 20 μM or less, and more preferably at about 15 μM, 10 μM or 5 μM or less.
After re-synthesis of 16 of these as soluble peptides, 13 were tested for ability to inhibit the NL4-3 clone of HIV-1 (the other 3 were insoluble). For these studies a focal infectivity assay was carried out using HeLa H1-JC.37 cells. H1-JC.37 cells are HeLa cells that naturally express the CXCR4 receptor and that have been engineered to express CD4 and CCR5 receptors (Platt, et al. J. Virol. 72:2855 (1998)). Dose-response curves were performed in triplicate experiments with 6 determinations per drug concentration in each experiment. None of these peptides inhibited growth of HeLa H1-JC.37 cells at the concentrations tested (up to 100 μM). […] The purified peak fraction was re-tested for anti-HIV activity, and the EC50 was determined to be 8 μM. The identity of the biologically active peptide has been confirmed with mass spectrometry.

ogp140 = biological target: T1, ogp140 (Human immunodeficiency virus type 1 group M subtype B, UniProt P19550); format: binding, HIV-1 SF162 strain; conditions: Table 2 peptides re-synthesized on beads
T1 construct: ogp140, which contains gp120 and the ectodomain of the gp41 subunit in a trimeric form; purchased Chiron Corporation (gift from Dr. Indresh Srivastava, not a purchase)
T1 sequence (P19550 32-675): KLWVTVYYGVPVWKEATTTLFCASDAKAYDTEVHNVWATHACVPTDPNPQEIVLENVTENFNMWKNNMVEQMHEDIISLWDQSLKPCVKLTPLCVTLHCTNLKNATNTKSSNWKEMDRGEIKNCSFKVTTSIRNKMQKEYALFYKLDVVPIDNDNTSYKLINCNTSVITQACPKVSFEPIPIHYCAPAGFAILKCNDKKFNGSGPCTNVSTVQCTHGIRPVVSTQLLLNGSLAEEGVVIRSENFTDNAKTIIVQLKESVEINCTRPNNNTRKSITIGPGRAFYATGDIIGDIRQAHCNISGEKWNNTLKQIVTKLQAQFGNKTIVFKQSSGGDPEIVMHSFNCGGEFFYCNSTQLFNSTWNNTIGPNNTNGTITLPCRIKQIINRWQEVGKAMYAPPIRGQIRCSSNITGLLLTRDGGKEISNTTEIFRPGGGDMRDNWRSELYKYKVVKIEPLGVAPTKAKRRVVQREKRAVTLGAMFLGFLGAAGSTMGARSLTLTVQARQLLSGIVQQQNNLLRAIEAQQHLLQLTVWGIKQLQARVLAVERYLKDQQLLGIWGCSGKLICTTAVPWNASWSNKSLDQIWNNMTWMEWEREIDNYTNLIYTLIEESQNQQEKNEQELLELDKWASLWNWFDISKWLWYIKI
Procedure: The optimal concentrations of glycoproteins for our screening assays were determined to be 0.25-1.25 μg/ml for ogp140 and 1-5 μg/ml for gp120. In order to visualize beads with bound ogp140 or gp120, these proteins were biotinylated so that an enzyme-linked colorimetric assay could be used to identify positive beads. Biotinylation was performed with Sulpho-NHS-biotin at a 5:1 molar ratio of biotin to protein. Reactions were carried out for both 3 minutes and 10 minutes to obtain different levels of biotinylation and were stopped with 2 M Tris-HCl, pH 7.4. The proteins were dialyzed for 4-5 hr to remove excess biotin.
The peptides of Table 2 were re-synthesized on beads.
These secondary libraries were screened with ogp140 under higher stringency (lower protein concentrations of both ogp140 and streptavidin-alkaline phosphatase (ST-AP)). The concentrations of ogp140 used in this screen were 0.06 mg/mL and 0.3 mg/mL. These concentrations are 4-fold lower than those used in the original screen (0.25 mg/mL and 1.25 mg/mL). The amount of ST-AP was lowered from 1:15,000 in the original screen to 1:25,000 in this screen. Approximately 75,000 beads from each library were screened.
From the 34 positive beads of the 8-mer library, the 12 darkest beads were selected for sequence analyses and the results are in Table 3.

Row | Compound | EC50 (HIV-1 NL4-3; NL4-3) | EC50 (HIV-1 NL4-3; HPLC-purified peak fraction re-tested, read-out: EC50 of purified peak fraction, anti-HIV activity) | staining intensity of peptide beads in binding assays with ogp140 (ogp140)
1 | CC[C@@H](C)[C@@H](NC(=O)[C@@H](Cc1c[nH]c2ccccc12)NC(=O)[C@@H]1CCCN1C(=O)[C@@H](Cc1ccc(O)cc1)NC(=O)[C@@H](CO)NC(=O)[C@H]1CCCN1C(=O)[C@@H](C)N)C(=O)N[C@H](CCCNC(=N)N)C(=O)O [compound 1] (H-[dA][dP][dS][dY]P[dW][dI][dR]-OH; N-terminus and C-terminus assumed) | > 100 µM |  | 
2 | CC(C)[C@@H](NC(=O)[C@@H](Cc1c[nH]cn1)NC(=O)[C@@H](CC(=O)O)NC(=O)[C@@H](Cc1ccccc1)NC(=O)[C@@H]1CCCN1C(=O)[C@@H](CCC(N)=O)NC(=O)[C@@H](Cc1ccc(O)cc1)NC(=O)[C@H](N)Cc1ccc(O)cc1)C(=O)O [compound 14] (H-[dY][dY][dQ]P[dF][dD][dH][dV]-OH; N-terminus and C-terminus assumed) | 55 µM |  | 
3 | CSCC[C@@H](NC(=O)[C@H](N)Cc1c[nH]cn1)C(=O)N[C@H](CC(N)=O)C(=O)N1CCC[C@H]1C(=O)N[C@H](Cc1ccccc1)C(=O)N[C@H](Cc1ccc(O)cc1)C(=O)N[C@H](Cc1ccc(O)cc1)C(=O)N[C@H](CCC(N)=O)C(=O)O [compound 13] (H-[dH][dM][dN]P[dF][dY][dY][dQ]-OH; N-terminus and C-terminus assumed) | > 100 µM |  | 
4 | CC[C@@H](C)[C@@H](NC(=O)[C@@H](Cc1c[nH]c2ccccc12)NC(=O)[C@@H]1CCCN1C(=O)[C@@H](Cc1ccc(O)cc1)NC(=O)[C@@H](CO)NC(=O)[C@H]1CCCN1C(=O)[C@H](N)CCSC)C(=O)N[C@H](CCCNC(=N)N)C(=O)O [compound 16, mpsyPwir] (H-[dM][dP][dS][dY]P[dW][dI][dR]-OH; N-terminus and C-terminus assumed) | 17 µM | 8 µM | stain more intensively
